The target in test [1] is T1, human-derived guanylate cyclase (Homo sapiens, UniProt Q02153).
T1 construct: made in house; host or cells: Sf9 insect cells (lysate used)
T1 sequence (Q02153 1-619): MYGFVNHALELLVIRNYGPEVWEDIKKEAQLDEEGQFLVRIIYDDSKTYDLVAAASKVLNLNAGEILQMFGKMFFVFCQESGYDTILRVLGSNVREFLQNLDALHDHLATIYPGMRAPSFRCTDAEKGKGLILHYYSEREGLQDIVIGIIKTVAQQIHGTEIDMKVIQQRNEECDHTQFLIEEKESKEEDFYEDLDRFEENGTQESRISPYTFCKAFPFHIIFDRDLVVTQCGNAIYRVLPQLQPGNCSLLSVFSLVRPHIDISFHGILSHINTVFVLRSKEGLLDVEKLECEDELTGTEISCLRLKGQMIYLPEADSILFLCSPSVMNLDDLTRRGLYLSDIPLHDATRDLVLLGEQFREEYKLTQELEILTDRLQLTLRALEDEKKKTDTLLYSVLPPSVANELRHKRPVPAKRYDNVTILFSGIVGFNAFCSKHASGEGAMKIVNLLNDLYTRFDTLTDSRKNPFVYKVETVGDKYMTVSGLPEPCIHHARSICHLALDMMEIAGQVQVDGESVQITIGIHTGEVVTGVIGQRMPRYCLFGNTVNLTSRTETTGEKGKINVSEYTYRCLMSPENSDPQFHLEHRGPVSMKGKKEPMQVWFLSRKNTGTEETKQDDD
T1 sequence (Q02108 1-690 partner): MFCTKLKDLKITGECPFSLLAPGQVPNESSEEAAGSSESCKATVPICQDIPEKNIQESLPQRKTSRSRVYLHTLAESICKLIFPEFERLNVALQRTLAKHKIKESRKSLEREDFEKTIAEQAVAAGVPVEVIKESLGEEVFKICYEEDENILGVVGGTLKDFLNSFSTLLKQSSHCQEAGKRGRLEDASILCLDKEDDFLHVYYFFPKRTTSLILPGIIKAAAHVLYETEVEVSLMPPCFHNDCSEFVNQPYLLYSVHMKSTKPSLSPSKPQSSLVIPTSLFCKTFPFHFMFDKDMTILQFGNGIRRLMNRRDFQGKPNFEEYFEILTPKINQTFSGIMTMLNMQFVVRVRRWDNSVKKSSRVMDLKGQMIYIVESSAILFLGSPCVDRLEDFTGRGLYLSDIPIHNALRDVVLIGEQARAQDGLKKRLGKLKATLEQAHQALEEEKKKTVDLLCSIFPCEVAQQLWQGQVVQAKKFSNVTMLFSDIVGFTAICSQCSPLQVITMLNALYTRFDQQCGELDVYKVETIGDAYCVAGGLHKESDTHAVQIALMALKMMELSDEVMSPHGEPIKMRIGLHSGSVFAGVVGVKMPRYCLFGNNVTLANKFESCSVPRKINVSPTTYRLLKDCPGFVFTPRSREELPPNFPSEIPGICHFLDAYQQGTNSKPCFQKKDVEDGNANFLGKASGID
The test is described as follows: Activity against guanylate cyclase (cGMP production, EIA). The conditions noted are these: Sf9 lysate with human-derived guanylate cyclase, antagonistic activity vs 30 μM sodium nitroprusside, cGMP by EIA. In kind it is biochemical. As to the method: Plasmid in which a human-derived guanylate cyclase is expressed was transfected to Sf9 insect cells, followed by proliferation and then lysis. The compound (1, 10, 30, 100, 300 μM) of the present invention dissolved in DMSO and a positive control, ODQ (1H-[1,2,4]oxadiazolo[4,3-a]quinoxalin-1-one, 0.5, 0.1, 0.05, 0.01, 0.005 μM) were added to each well, to which guanylate cyclase (the lysed solution) which is mixed in a modified Tris-HCl buffer was added until its final concentration became to 0.013 μg/ml. After incubating at 37° C. for 20 minutes, 1N HCl was added to end the reaction.
After removing the guanylate cyclase, an amount of cGMP produced from the reaction was subject to quantitative measurement using an EIA kit. The amount of cGMP increases as the guanylate cyclase converting GTP to cGMP is activated. The activation of the guanylate cyclase was calculated based on the assumption that the result of sodium nitroprusside (30 μM), an agonist of the guanylate cyclase was 100%. The antagonistic activity against the guanylate cyclase was calculated based on the assumption that the result when treated only with 30 μM of sodium nitroprusside was 100% compared to when treated with both sodium nitroprusside and a drug.

Test [2] concerns the target T2, human-derived melanocortin MC1 receptor (Homo sapiens, UniProt Q01726).
T2 construct: expressed in transfected cells
The test is described as follows: Inhibiting activity against melanocortin MC1 receptor ([125I]NDP-a-MSH binding). The conditions noted are these: cell membranes expressing human-derived melanocortin MC1 receptor, ligand [125I]NDP-a-MSH, 37° C. 120 minutes. As to the method: (§1) Each of 100 μl of a modified HEPES-KOH buffer was added to each well, to which the compound (50, 500, 1500, 5000, 15000 μM) of the present invention dissolved in DMSO and a positive control, NDP-a-MSH (0.25, 0.5, 2.5, 5, 25 nM) were added in an amount of 5 μl, respectively. Thereto, each of 50 μl of a melanocortin MC1 receptor ligand, [^125l] NDP-a-MSH was added, and each of 100 μl of a modified Tris-HCl buffer having cell membranes in which a human-derived melanocortin MC1 receptor is expressed was added. After incubating at 37° C. for 120 minutes, the resultants were filtered and washed 3 times. The number of cell membranes bound with an isotope was calculated by means of β-ray measurement.

Test [3] deals with visceral hypersensitivity in colitis-induced rats. The test is described as follows: Suppressing effect of visceral pain in CRD (colorectal distension) model. The conditions noted are these: CRD test about 1 hour after dosing. Format: in vivo, Sprague-Dawley male rats. As to the method: To evaluate the suppressing effect of the separated (6E,12E)-3-hydroxytetradeca-6,12-dien-8,10-diyn-1-yl acetate on the visceral hypersensitivity, a Colorectal Distension (CRD) test that has been often used in the evaluation of drugs for IBS was conducted as follows (see J H. La et al., World J. Gastroenterol. Dec., 9(12): p 2791-2795, 2003).
250 to 300 g of Sprague-Dawley male rats (Charles River) were used for the CRD test. Two rats per one cage were reared in a room of 25° C., humidity 50%, and day-night 12:12 hours of cycle. Rats were freely provided with drink water and food, and were adapted to the room condition for 5 days, followed by inducing colitis. […]
A 2 cm-long rubber balloon was inserted into the rectum of each rat, and was filled with 37° C-warmed water in stages, from 0.1 to 1.0 ml. The appearing pain reactions of rats were recorded. The specific behaviors of CRD test animals were represented with AWR (abdominal withdrawal reflex), which was indirectly and quantitatively analyzed by AWR scores given on each behavior, and the AWR scores were used for identifying the abdominal pain reaction. […]
The presence of visceral hypersensitivity was checked in CRD rats 7 days after inducing colitis. […] Student's t-test (p<0.01 (**) or p<0.001 (***)) was used for statistical approach, and significance relative to the vehicle-administered group was detected. […]

Test [4] has as its target T3, human-derived cannabinoid CB2 receptor (Homo sapiens, UniProt P34972).
T3 construct: expressed in transfected cells
The test is described as follows: Inhibiting activity against cannabinoid CB2 receptor ([3H]WIN-55,212-2 binding). The conditions noted are these: cell membranes expressing human-derived cannabinoid CB2 receptor, ligand [3H]WIN-55,212-2, 37° C. 90 minutes. As to the method: as §1, with “HEPES” for “HEPES-KOH”, “R(+)-WIN-55, 212-2 (0.05, 0.25,” for “NDP-a-MSH (0.25,”, “5” for “5, 25”, “cannabinoid CB2” for “melanocortin MC1”, “[^3H]WIN-55, 212-2” for “[^125l] NDP-a-MSH”, “90” for “120”

For test [5], the target named is T4, human-derived NK2 receptor (Homo sapiens, UniProt P21452).
T4 construct: expressed in transfected cells
T4 sequence (P21452 1-398): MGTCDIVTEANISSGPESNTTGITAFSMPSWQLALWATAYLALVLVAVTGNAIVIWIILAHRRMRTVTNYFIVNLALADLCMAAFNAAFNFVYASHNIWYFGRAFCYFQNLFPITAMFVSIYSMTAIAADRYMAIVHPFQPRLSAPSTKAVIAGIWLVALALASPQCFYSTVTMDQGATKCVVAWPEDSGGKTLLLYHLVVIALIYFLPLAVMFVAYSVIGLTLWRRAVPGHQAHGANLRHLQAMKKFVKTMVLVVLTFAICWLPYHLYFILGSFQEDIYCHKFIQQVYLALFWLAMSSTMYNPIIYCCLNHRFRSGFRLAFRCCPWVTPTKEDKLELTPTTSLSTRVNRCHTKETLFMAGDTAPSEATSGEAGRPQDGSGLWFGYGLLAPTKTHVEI
The test is described as follows: Inhibiting activity against NK2 receptor ([3H]SR-48968 competitive binding). The conditions noted are these: cell membranes expressing human-derived NK2 receptor, ligand [3H]SR-48968, 25° C. 90 minutes. As to the method: Each of 100 μl of a modified HEPES buffer was added to each well, to which the compound (50, 500, 1500, 5000, 15000 μM) dissolved in DMSO and a positive control, MEN-10,376 (0.5, 2.5, 5, 25, 50 μM) were added in an amount of 5 μl, respectively. Thereto, each of 50 μl of a NK2 receptor ligand, [3H]SR-48968 was added, and each of 100 μl of a modified HEPES buffer having cell membranes in which a human-derived NK2 receptor is expressed was added. After incubating with stirring (200 rpm) at 25° C. for 90 minutes, the resultants were filtered and washed 3 times.
The number of cell membranes bound with an isotope ([^3H]SR-48968) was calculated by means of […] measurement. At this time, as a test material is strongly bound with the receptor, the ligand [^3H]SR-48968 is not bound and measured values decrease (competitive bonding). The value for the well added with only the ligand was represented as “0% inhibition”, and the well having no ligand, as “100% inhibition’, and the inhibition rate was measured depending on the amount of drug concentration.

Test [6] has as its target T5, human-derived motilin receptor (Homo sapiens, UniProt O43193).
T5 construct: expressed in transfected cells
The test is described as follows: Inhibiting activity against motilin receptor (radioligand binding). The conditions noted are these: cell membranes expressing human-derived motilin receptor, 25° C. 150 minutes. As to the method: Each of 100 μl of a modified Tris-HCl buffer was added to each well, to which the compound (50, 500, 1500, 5000, 15000 μM) of the present invention dissolved in DMSO and a positive control, motilin (2.5, 5, 25, 50, 250 μM) were added in an amount of 5 μl, respectively. Thereto, each of 50 μl of a motilin receptor ligand, […] was added, and each of 100 μl of a modified Tris-HCl buffer having cell membranes in which a human-derived motilin receptor is expressed was added. After incubating at 25° C. for 150 minutes, the resultants were filtered and washed 3 times. The number of cell membranes bound with an isotope was calculated by means of β-ray measurement.

T2 sequence (Q01726 whole entry): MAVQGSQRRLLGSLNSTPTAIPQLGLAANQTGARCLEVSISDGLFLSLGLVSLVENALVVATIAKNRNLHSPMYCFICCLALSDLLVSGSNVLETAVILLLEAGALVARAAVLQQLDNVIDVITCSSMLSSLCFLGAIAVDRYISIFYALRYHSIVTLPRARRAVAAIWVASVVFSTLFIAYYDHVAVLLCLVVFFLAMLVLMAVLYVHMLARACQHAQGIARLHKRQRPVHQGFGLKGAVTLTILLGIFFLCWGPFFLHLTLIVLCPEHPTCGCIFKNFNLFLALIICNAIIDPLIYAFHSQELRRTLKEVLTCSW
T3 sequence (P34972 whole entry): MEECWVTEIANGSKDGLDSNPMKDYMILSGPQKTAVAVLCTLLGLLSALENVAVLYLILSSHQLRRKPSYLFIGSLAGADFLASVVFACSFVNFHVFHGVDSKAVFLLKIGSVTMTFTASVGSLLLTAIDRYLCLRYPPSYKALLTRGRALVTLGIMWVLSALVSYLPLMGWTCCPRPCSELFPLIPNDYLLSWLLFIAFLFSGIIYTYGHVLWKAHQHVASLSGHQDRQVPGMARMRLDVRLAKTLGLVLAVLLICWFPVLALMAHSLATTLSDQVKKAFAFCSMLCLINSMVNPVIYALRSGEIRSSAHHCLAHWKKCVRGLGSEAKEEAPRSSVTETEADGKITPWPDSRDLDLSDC
T5 sequence (O43193 whole entry): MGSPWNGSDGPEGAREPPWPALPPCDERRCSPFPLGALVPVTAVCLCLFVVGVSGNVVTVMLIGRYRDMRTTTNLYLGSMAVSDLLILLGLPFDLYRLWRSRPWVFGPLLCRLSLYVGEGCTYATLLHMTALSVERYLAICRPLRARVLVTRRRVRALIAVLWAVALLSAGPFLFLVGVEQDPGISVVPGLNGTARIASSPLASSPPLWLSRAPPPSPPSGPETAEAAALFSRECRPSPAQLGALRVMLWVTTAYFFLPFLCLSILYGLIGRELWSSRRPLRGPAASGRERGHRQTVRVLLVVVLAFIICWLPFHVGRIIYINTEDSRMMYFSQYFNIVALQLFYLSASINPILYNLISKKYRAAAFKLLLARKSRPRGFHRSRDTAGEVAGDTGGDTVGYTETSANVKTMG

On to `C/C=C/C#CC#C/C=C/CCC(O)CCOC(C)=O` (stereo not shown) [(6E,12E)-3-hydroxytetradeca-6,12-dien-8,10-diyn-1-yl acetate], for which the IC50 is 18.9 µM in test [1]; 133 µM in test [2]; 45 µM in test [4]; 30.6 µM in test [5]; 29.1 µM in test [6]. Moreover, in test [3] (100 mg/kg orally, Student's t-test), the “suppressing effect against visceral hypersensitivity relative to the vehicle group (AWR score / AUC, FIG. 2)” value was “significant suppressing effect against visceral hypersensitivity”. Moreover, in test [3] (10, 30 and 100 mg/kg orally), the “suppressing effect against visceral pain (AWR score / AUC, FIG. 2)” value is on record as “suppressing effect against visceral pain occurred in visceral hypersensitivity as its concentration increased”.

By IC50 is commonly meant the concentration that gives 50% inhibition. A lower IC50 goes with inhibition by little substance.
